These results are taken from US6034134A, “1-Amino-alkylcyclohexane NMDA receptor antagonists” (Merz + Co. GmbH & Co., priority 1998, dated 2000).

Broadly, the IC50 is the point on the concentration scale where inhibition reaches its midpoint. The term ED50 denotes the dose that gives a 50% effect, or the effect in half of the subjects. What is called Ki is a measure of affinity in units of concentration, obtained from inhibition or displacement.

Series [1] relates to NMDA receptor. Briefly: Patch clamp: NMDA-induced inward currents in cultured hippocampal neurones. It is filed as cell-based, rat. As for the experimental part: Hippocampi were obtained from rat embryos (E20 to E21) and were then transferred to calcium and magnesium free Hank's buffered salt solution (Gibco) on ice. Cells were mechanically dissociated in 0.05% DNAase/0.3% ovomucoid (Sigma) following an 8 minute pre-incubation with 0.66% trypsin/0.1% DNAase (Sigma). The dissociated cells were then centrifuged at 18 ×g for 10 minutes, re-suspended in minimum essential medium (Gibco) and plated at a density of 150,000 cells cm^-2 onto poly-L-lysine (Sigma)-precoated plastic petri dishes (Falcon). The cells were nourished with NaHCO3 /HEPES-buffered minimum essential medium supplemented with 5% fetal calf serum and 5% horse serum (Gibco) and incubated at 37° C. with 5% CO2 at 95% humidity. […] Thereafter the medium was exchanged partially twice weekly.
Patch clamp recordings were made from these neurones with polished glass electrodes (4-6 m.OMEGA.) in the whole cell mode at room temperature (20-22° C.) with the aid of an EPC-7 amplifier (List). Test substances were applied by switching channels of a custom-made fast superfusion system with a common outflow (10-20 ms exchange times). The contents of the intracellular solution were as follows (mM): CsCl (120), TEACl (20), EGTA (10), MgCl2 (1), CaCl2 -(0.2), glucose (10), ATP(2), cAMP (0.25); pH was adjusted to 7.3 with CsOH or HC1. The extracellular solutions had the following basic composition (mM): NaCl (140), KCl (3), CaCl2 (0.2), glucose (10), HEPES (10), sucrose (4.5), tetrodotoxin (TTX 3*10^-4). Glycine (1 μM) was present in all solutions: a concentration sufficient to cause around 80-85% activation of glycineB receptors. Only results from stable cells were accepted for inclusion in the final analysis, i.e., following recovery of responses to NMDA by at least 75% of their depression by the antagonists tested.
(§1) IC50 s in patch clamp, excitotoxicity, and binding studies were calculated according to the four parameter logistic equation using the Grafit computer program (Erithacus Software, England). Ki value for binding studies were then determined according to Cheng and Prusoff. Binding values presented are means±SEM of 3-5 determinations (each performed in duplicate). […] Pearson product moment correlation analysis (Sigma Stat, Jandel Scientific) was used to compare in vitro potencies and in vivo anticonvulsant activity.
(In general: The patch-clamp technique gives a direct electrical read-out from membranes.)

A further series concerns cortical neurones. The series is described as follows: Excitotoxicity: glutamate toxicity in cultured cortical neurones (MTT). It is filed as cell-based, rat. To be noted: Rattus norvegicus, Cortical neurone. As for the experimental part: Cortical neurones were obtained from cerebral cortices of 17/18 day old fetal rats (Wistar), in general following the dissociation procedure described by. After short trypsinization and gentle trituration with fire-polished Pasteur pipettes, the cell suspension was washed by centrifugation. Cells were suspended in serum-free Neurobasal medium with B27 supplement (GIBCO) before plating onto poly-L-lysine (Sigma; 0.2 mg/ml, 20 h, 4° C.) and laminin (Sigma; 2 μg/ml, 1 h, 37° C.)-coated 96-well plates (Falcon, Primaria) at a density of 5×10^4 cells/well. Cortical neurones were maintained at 37° C. in humidified 10% CO2 /90% air. […] The medium was changed first after 4 days in vitro and then every 4 days by replacing 2/3 of the medium with astrocyte-conditioned medium. Cortical neurones between day 12 and 14 in culture were used for the experiments.
New-born rat astrocytes were isolated non-enzymatically according to the method of [24]. Briefly, both hemispheres were dissected from 2-day-old rats, passed through an 80 μm gauze, and triturated with Pasteur pipettes. Cell suspension was made in Dulbecco's modified essential medium (DMEM, Gibco) supplemented with 10% fetal calf serum (FCS, Hyclone), 2 mM glutamine (Gibco) and 50 μg/ml gentamycin and transferred into untreated, plastic culture flasks (Corning; […]). Two days after plating the flasks were shaken for 10 minutes on a rotary platform (150 U/min) to remove microglial cells. The cultures were grown to confluency within 14 days, and the culture medium was changed twice weekly. Thereafter, the glial monolayers were extensively washed with serum-free Neurobasal medium (Gibco) to remove the serum. Flasks were then shaken several times to remove oligodendrocytes and neurones. To obtain conditioned medium from primary astrocytes, the cultures were incubated with fresh Neurobasal medium supplemented with B27 andglutamine. Every 2-3 days the conditioned medium was collected and replaced by fresh medium up to 4 times.
Exposure to EAA was performed in serum-free Neurobasal medium containing 100 μM glutamate and the drug to be tested. After 20 h of incubation, the cytotoxic effect was morphologically examined under a phase contrast microscope and biochemically quantified by measuring cell viability with the MTT test (Promega). This calorimetric assay measures the reduction of a tetrazolium component (MTT) into an insoluble formazan product by the mitochondria of living cells. After incubation of the cortical neurones with the dye solution for approximately 1-4 hours, a solubilization solution was added to lyse the cells and solubilize the colored product (incubation overnight at 37° C., 10% CO2, 90% RH). These samples were then read using an Elisa plate reader (Thermomax, MWG Biotech) at a wavelength of 570 nm. The amount of color produced was directly proportional to the number of viable cells.
as §1

Series [2] can be described thus: Maximal electroshock (MES)-induced convulsions in mice. It is filed as in vivo. To be noted: for ED50: Mus musculus, ip, 0.5 h, read-out: MES ED50; for MES ED50: 30 min. As for the experimental part: (§2) NMR female mice (18-28 g) housed 5 per cage were used for the maximal electroshock (MES) and motor impairment tests. […] All compounds were dissolved in 0.9% saline.
(§3) The MES test was performed together with tests for myorelaxant action (traction reflex) and motor coordination (rotarod). For the traction reflex test mice were placed with their forepaws on a horizontal rod and were required to place all 4 paws on the wire within 10 seconds. To test ataxia (motor coordination) mice were placed on rotarod (5 rpm) and were required to remain on the rod for 1 minute. […] These tests were followed by MES (100 Hz, 0.5 second shock duration, 50 mA shock intensity, 0.9 ms impulse duration, Ugo Basile) applied through corneal electrodes. The presence of tonic convulsions was scored (tonic extension of hind paws with minimum angle to the body of 90°). The aim was to obtain ED50 s for all parameters scored (anticonvulsive activity and motor side effects) with use of the Litchfield Wilcoxon test for quantal dose responses. Division of the ED50 for side effects (ataxia or myorelaxation) by the ED50 for antagonism of electroshock convulsions was used as a therapeutic index (TI). […]
A general note: The maximal electroshock test induces tonic seizures with an electrical stimulus.

The conditions of series [3]: cited from earlier work; for side effects in humans: human, in vivo.
The procedure of series [4]: All animals were kept with water and food ad libitum under a 12 hour light-dark cycle (light on at 6 a.m.) and at a controlled temperature (20±0.5° C.). All e experiments were performed between 10 a.m. and 5 p.m. Tested agents were injected 30 min. i.p. before the induction of convulsions if not stated otherwise (see below). All compounds were dissolved in 0.9% saline.

Series [5] has as its target NMDA receptor. The series is described as follows: [3H]-(+)-MK-801 binding to rat cortical membranes. To be noted: read-out: MK-801 Ki; Table 9; Cheng-Prusoff with Kd for MK-801 of […]. As for the experimental part: Male Sprague-Dawley rats (200-250 g) were decapitated and their brains were removed rapidly. The cortex was dissected and homogenized in 20 volumes of ice-cold 0.32 M sucrose using a glass-Teflon homogenizer. The homogenate was centrifuged at 1000 ×g for 10 minutes. The pellet was discarded and the supernatant centrifuged at 20,000 ×g for 20 minutes. The resulting pellet was re-suspended in 20 volumes of distilled water and centrifuged for 20 minutes at 8000 ×g. Then the supernatant and the buffy coat were centrifuged three times (48,000 ×g for 20 minutes) in the presence of 50 mM Tris-HCl, pH 8.0. All centrifugation steps were carried out at 4° C. After resuspension in 5 volumes of 50 mM Tris-HCl, pH 8.0 the membrane suspension was frozen rapidly at -80° C. On the day of assay the membranes were thawed and washed four times by resuspension in 50 mM Tris-HCl, pH 8.0 and centrifugation at 48,000 ×g for 20 minutes. The final pellet was suspended in assay buffer. The amount of protein in the final membrane preparation was determined according to the method of Lowry with some modifications. The final protein concentration used for our studies was between 250-500 μg/ml.
Membranes were re-suspended and incubated in 50 mM Tris-HCl, pH 8.0. […] Incubations were terminated using a Millipore filter system. The samples were rinsed three times with 2.5 ml ice cold assay buffer over glass fiber filters obtained from Schleicher & Schuell under a constant vacuum. Filtration was performed as rapidly as possible. Following separation and rinse, the filters were placed into scintillation liquid (5 ml; Ultima Gold) and radio activity retained on the filters was determined with a conventional liquid scintillation counter (Hewlett Packard, Liquid Scintillation Analyser).
as §1

A short description of series [6]: Traction reflex test (myorelaxant action) in mice, therapeutic index versus MES. To be noted: ED50 for traction reflex impairment divided by ED50 for MES. It is filed as in vivo. As for the experimental part: as §2, §3
A short description of series [7]: Rotarod test (motor coordination, ataxia) in mice, therapeutic index versus MES. In kind it is in vivo. The note with it: mouse, in vivo, ip; ED50 for rotarod failure divided by ED50 for MES; read-out: TI Rot. As for the experimental part:
All compounds were dissolved in 0.9% saline.
The MES test was performed together with tests for myorelaxant action (traction reflex) and motor coordination (rotarod). For the traction reflex test mice were placed with their forepaws on a horizontal rod and were required to place all 4 paws on the wire within 10 seconds. To test ataxia (motor coordination) mice were placed on rotarod (5 rpm) and were required to remain on the rod for 1 minute. […] These tests were followed by MES (100 Hz, 0.5 second shock duration, 50 mA shock intensity, 0.9 ms impulse duration, Ugo Basile) applied through corneal electrodes. The presence of tonic convulsions was scored (tonic extension of hind paws with minimum angle to the body of 90°). The aim was to obtain ED50 s for all parameters scored (anticonvulsive activity and motor side effects) with use of the Litchfield Wilcoxon test for quantal dose responses. Division of the ED50 for side effects (ataxia or myorelaxation) by the ED50 for antagonism of electroshock convulsions was used as a therapeutic index (TI).
IC50 s in patch clamp, excitotoxicity, and binding studies were calculated according to the four parameter logistic equation using the Grafit computer program (Erithacus Software, England). Ki value for binding studies were then determined according to Cheng and Prusoff. […] Pearson product moment correlation analysis (Sigma Stat, Jandel Scientific) was used to compare in vitro potencies and in vivo anticonvulsant activity.

Where [8] appears, read: read-out: Patch Clamp IC50; Table 7; NMDA 200 μM with glycine 1 μM at -70 mV.
Setting [9] is: read-out: Patch Clamp IC50; Table 9; NMDA-induced currents.
Where [10] appears, read: 20 h, read-out: Glut. Tox. IC50.
Setting [11] is: Table 8, mice, i.p., 95% confidence limits in parentheses.

Structures can show the parent of a compound that is named as a salt. Where two headings read alike, the source gives them in different places. Bounds are passed on as bounds.

With `NC12CC3CC(CC(C3)C1)C2` [Amantadine, reference compound], the 50% inhibitory concentration (IC50) in the series on NMDA receptor [1] (setting [8]) was 71 µM; with NMDA receptor [1] (setting [9]) it was 80.8 µM; in the series with cortical neurones (setting [10]) it was 20.7 µM; in the series with cortical neurones (read-out: Glut Tox IC50), 36.9 µM. Moreover, in series [2], the ED50 was determined as 184 mg/kg. Also, the “MES ED50” value in series [2] (setting [11]) is listed as 184.0 (122-279) mg/kg. The “side effects in humans” value in series [3] was “rarely produce side effects at the therapeutic doses”.

`C[C@]12N[C@H](Cc3ccccc31)c1ccccc12` [MK-801, (+)-5-methyl-10,11-dihydro-5H-dibenzocyclohepten-5,10-imine maleate, reference compound]: the IC50 was […] in the series on NMDA receptor [1] (setting [8]), […] in the series on NMDA receptor [1] (setting [9]), 0.012 µM with cortical neurones (setting [10]) and 0.013 µM in the series with cortical neurones (read-out: Glut Tox IC50). Further, the ED50 in series [2] was found to be 0.16 mg/kg. For the same compound, the “MES ED50” value in series [2] (setting [11]) was 0.16 (0.13-0.21) mg/kg. The “Min Lethality” value in series [4] (i.p., minimal lethal dose) is > 108 mg/kg. In addition, the “side effects in humans” value in series [3] was “some psychotropic side effects were apparent at therapeutic doses”. Besides, in series [3] (initial clinical experience), the “therapeutic efficacy in epilepsy” value is “poor”.

Turning to `CC1(C)CC(C)(C)CC(C)(N2CCCC2)C1.Cl` [MRZ 2/705, N-(1,3,3,5,5-Pentamethylcyclohexyl) pyrrolidine hydrochloride], the Ki on NMDA receptor [5] was determined as 7.14 µM. Further, the selectivity ratio at 0.5 h in series [6] (mouse, in vivo, ip, read-out: TI Tract) was determined as 3.9; in series [7] it was 5.4. For the same compound, in series [4] (i.p., minimal lethal dose), the “Min Lethality” value was > 50 mg/kg.

For the compound `CC1(C)CC(C)(C)CC(C)(CCN)C1` [Mrz 2/662], the inhibition constant (Ki) at NMDA receptor [5] came to 3.44 µM. In addition, the IC50 turned out to be 1.5 µM with NMDA receptor [1] (Table 9; NMDA-induced currents; read-out: Patch Clamp IC50) and 0.53 µM in the series with cortical neurones (Table 9, 100 μM glutamate, read-out: Glut Tox IC50). Also, the ED50 in series [2] (setting [11]) stood at 30.5 mg/kg. Further, in series [6] (30 min), the “TI Tract” value was found to be 1.0. In series [4] (mouse, in vivo, ip), the “Min Lethality” value was > 40 mg/kg.
